The source of these data is patent US10710979B2, “EGFR kinase inhibitor and preparation method and use thereof” (ZHEJIANG BOSSAN PHARMACEUTICAL CO. LTD., priority 2015, dated 2020).

What all share (type): cell-based
Test [1] has as its system human hepatoma cell HepG2. Description: Effect of compounds on proliferation of tumor cells (MTT), HepG2. To be noted: 72 hours. The protocol: (§1) Human lung cancer cells H1975, H522, human hepatoma cell HepG2, human melanoma cell A375, human epidermal cancer cell A431, and human colon cancer cells COLO205 were cultivated. The cells were collected when they have grown to logarithmic growth phase, and centrifuged at 1000 rpm for 5 min, from which the supernatant was discarded, and the rest was suspended with appropriate amount of medium, and the concentration of cells was adjusted to 2.5-5.5×10^4/ml (once it was 3.0-5.5×10^4/ml). The cell suspension was inoculated into a 96-well cell culture plate with 100 μl per well, and placed in a cell incubator (37° C., 5% CO2) for 24 hours, and then 100 μl of the drug diluted in the cell culture medium was added to each well of the drug group. Three duplicate wells were set for each drug, and the negative control group was medium containing 0.5% DMSO. After being incubated for 72 hours in the incubator, 20 μl of MTT (5 mg/ml) was added to each well, which was placed under 37° C. for 3 hours. 150 μl of DMSO was added to each well and shaken at 37° C. for 5 mins, and absorbance (OD) was determined at 492 nm. The Prism Graphpad statistical software was used to calculate IC50 values.

Test [2] deals with human lung cancer cells H1975. Description: Effect of compounds on proliferation of tumor cells (MTT), H1975. The following applies: Homo sapiens, NCI-H1975; H1975 cells, 72 hours, MTT. The method, then:
as §1

The subject of test [3] is human melanoma cell A375. In words: Effect of compounds on proliferation of tumor cells (MTT), A375. The following applies: A-375, 72 hours. The method, then:
as §1

Test [4] relates to human epidermal cancer cell A431. In words: Effect of compounds on proliferation of tumor cells (MTT), A431. To be noted: A-431, 72 hours. The protocol: as §1
For test [5], the system named is human lung cancer cells H522. Description: Effect of compounds on proliferation of tumor cells (MTT), H522. The following applies: NCI-H522, 72 hours. The method, then:
as §1

Test [6] deals with human colon cancer cells COLO205. In words: Effect of compounds on proliferation of tumor cells (MTT), COLO205. To be noted: COLO 205, 72 hours. The method, then:
as §1

By IC50 is commonly meant the concentration that inhibits the measured activity by half. Consider `C=CC(=O)Nc1cccc(Nc2nc(Nc3cnc(N4CCN(C(=O)N(C)C)CC4)nc3OC)ncc2C(F)(F)F)c1` [ES-164], for which the IC50 stood at 12.6 µM in test [1]; 0.0745 µM in test [2]; 18.2 µM in test [3]; 5.72 µM in test [4]; 1.39 µM in test [5]; 6.05 µM in test [6].
Take `C=CC(=O)Nc1cccc(Nc2nc(Nc3ccc(N(C)C4CCN(C)C4)nc3OC)ncc2C(F)(F)F)c1` (stereo not shown) [ES-150]: the IC50 in test [1] stood at 3.27 µM; in test [2], 0.0232 µM; in test [3] it was 6.22 µM; in test [4], 2.05 µM; in test [5] it was 1.51 µM; in test [6], 5.15 µM.
On to `C=CC(=O)Nc1cccc(Nc2nc(Nc3ccc(N4CCN(C(=O)OC(C)(C)C)CC4)nc3OC)ncc2C(F)(F)F)c1` [ES-070], for which the IC50 is 7.22 µM in test [1], 0.111 µM in test [2], 4.95 µM in test [3] and 1.75 µM in test [4].
Take `C=CC(=O)Nc1cccc(Nc2nc(Nc3cnc(N4CCN(C(=O)OC(C)(C)C)CC4)nc3OC)ncc2C(F)(F)F)c1` [ES-159]: the half-inhibitory concentration (IC50) in test [1] is 2.23 µM; in test [2] it was 0.649 µM; in test [3], 49.9 µM; in test [4], 37 µM; in test [5] it was 3.13 µM; in test [6] it was 1.86 µM.
With `C=CC(=O)Nc1cccc(Nc2nc(Nc3cnc(N4CCN(C(C)=O)CC4)cc3OC)ncc2C(F)(F)F)c1` [ES-074], the IC50 worked out at 6.88 µM in test [1], 0.179 µM in test [2], 10.3 µM in test [3] and 3.5 µM in test [4].
For `C=CC(=O)Nc1cccc(Nc2nc(Nc3ccc(N4CCN(C(=O)CC)CC4)nc3OC)ncc2C(F)(F)F)c1` [ES-137], the IC50 in test [1] was 2.69 µM; in test [2], 0.0211 µM; in test [3], 3.58 µM; in test [4], 2.27 µM; in test [5], 2.29 µM; in test [6] it was 4.12 µM.
Take `C=CC(=O)Nc1cccc(Nc2nc(Nc3ccc(N4CCN(S(=O)(=O)CCC)CC4)nc3OC)ncc2C(F)(F)F)c1` [ES-144]: the IC50 came out at 0.101 µM in test [1]; 0.133 µM in test [2]; 1.51 µM in test [3]; 2.18 µM in test [4]; 0.399 µM in test [5]; 1.46 µM in test [6].
On to `C=CC(=O)Nc1cccc(Nc2nc(Nc3ccc(N4CCN(C(=O)N(C)C)CC4)nc3OC)ncc2C(F)(F)F)c1` [ES-131], for which the IC50 in test [1] came to 3.07 µM; in test [2] it was 0.0579 µM; in test [3] it was 4.04 µM; in test [4] it was 3.82 µM; in test [5], 2.4 µM; in test [6], 5.33 µM.
`C=CC(=O)Nc1cccc(Nc2nc(Nc3ccc(N(C)C4CCN(C(=O)C5COC5)C4)nc3OC)ncc2C(F)(F)F)c1` (stereo not shown) [ES-149]: the IC50 came out at 5.23 µM in test [1]; 0.0491 µM in test [2]; 6.71 µM in test [3]; 3.92 µM in test [4]; 3.1 µM in test [5]; 5.07 µM in test [6].
Take `C=CC(=O)Nc1cccc(Nc2nc(Nc3ccc(N4CCN(C(=O)C5CC5)CC4)nc3OC)ncc2C(F)(F)F)c1` [ES-130]: the IC50 is 0.794 µM in test [1]; 0.0356 µM in test [2]; 4.59 µM in test [3]; 2.25 µM in test [4]; 1.77 µM in test [5]; 3.35 µM in test [6].
`C=CC(=O)Nc1cccc(Nc2nc(Nc3ccc(N4CCN(C(C)=O)CC4)nc3)ncc2C(F)(F)F)c1` [ES-157]: the IC50 in test [1] was determined as 1.38 µM; in test [2] it was 0.0872 µM; in test [3], 5.46 µM; in test [4], 1.81 µM; in test [5] it was 0.655 µM; in test [6], 1.79 µM.
For the compound `C=CC(=O)Nc1cccc(Nc2nc(Nc3ccc(NC4CCN(C)C4)nc3OC)ncc2C(F)(F)F)c1` (stereo not shown) [ES-146], the IC50 in test [1] is 13 µM; in test [2], 0.046 µM; in test [3], 12.2 µM; in test [4], 3.46 µM; in test [5], 3 µM; in test [6] it was 8.71 µM.
For the compound `C=CC(=O)Nc1cccc(Nc2nc(Nc3ccc(N(C)C4CCN(C(=O)N(C)C)C4)nc3OC)ncc2C(F)(F)F)c1` (stereo not shown) [ES-151], the IC50 in test [1] amounted to 4.78 µM; in test [2], 0.132 µM; in test [3], 4.47 µM; in test [4], 6.74 µM; in test [5], 3.13 µM; in test [6] it was 6.07 µM.
For the compound `C=CC(=O)Nc1cccc(Nc2nc(Nc3ccc(N4CCN(C(=O)C(C)C)CC4)nc3OC)ncc2C(F)(F)F)c1` [ES-141], the IC50 in test [1] came out at 4.05 µM; in test [2], 0.0552 µM; in test [3], 4.5 µM; in test [4], 0.72 µM; in test [5], 2.34 µM; in test [6] it was 4.25 µM.
As for `C=CC(=O)Nc1cccc(Nc2nc(Nc3ccc(NC4CCN(CCF)C4)nc3OC)ncc2C(F)(F)F)c1` (stereo not shown) [ES-124], the IC50 worked out at 3.73 µM in test [1]; 0.0557 µM in test [2]; 6.26 µM in test [3]; 2.09 µM in test [4]; 1.25 µM in test [5]; 2.21 µM in test [6].
Turning to `C=CC(=O)Nc1cccc(Nc2nc(Nc3ccc(N4CCN(C(=O)CC(C)(C)C)CC4)nc3OC)ncc2C(F)(F)F)c1` [ES-138], the IC50 in test [1] came out at 3.07 µM; in test [2], 0.254 µM; in test [3], 3.79 µM; in test [4], 2.91 µM; in test [5], 5.89 µM; in test [6] it was 4.08 µM.
As for `C=CC(=O)Nc1cccc(Nc2nc(Nc3cnc(N4CCN(C)CC4)nc3OC)ncc2C(F)(F)F)c1` [ES-161], the IC50 came out at 6.24 µM in test [1]; 0.0868 µM in test [2]; 7.86 µM in test [3]; 2.32 µM in test [4]; 2.75 µM in test [5]; 4.14 µM in test [6].
As to `C=CC(=O)Nc1cccc(Nc2nc(Nc3ccc(N(C)C4CCN(C(C)=O)C4)nc3OC)ncc2C(F)(F)F)c1` (stereo not shown) [ES-147], the IC50 in test [1] came to 4.28 µM; in test [2], 0.464 µM; in test [3], 4.2 µM; in test [4] it was 2.21 µM; in test [5], 1.74 µM; in test [6], 4.29 µM.
With `C=CC(=O)Nc1cccc(Nc2nc(Nc3cnc(N4CCN(C(=O)C5COC5)CC4)nc3OC)ncc2C(F)(F)F)c1` [ES-163], the IC50 worked out at 18.9 µM in test [1]; 0.168 µM in test [2]; 19 µM in test [3]; 7.5 µM in test [4]; 5.11 µM in test [5]; 5.49 µM in test [6].
In the case of `C=CC(=O)Nc1cccc(Nc2nc(Nc3ccc(N4CCNCC4)nc3OC)ncc2C(F)(F)F)c1` [ES-069], the IC50 stood at 15.8 µM in test [1], 0.224 µM in test [2], 2.42 µM in test [3] and 5.26 µM in test [4].
Take `C=CC(=O)Nc1cccc(Nc2nc(Nc3ccc(N(C)C4CCN(CCF)C4)nc3OC)ncc2C(F)(F)F)c1` (stereo not shown) [ES-148]: the IC50 in test [1] was found to be 4.53 µM; in test [2], 0.032 µM; in test [3] it was 5.87 µM; in test [4], 2.5 µM; in test [5], 1.56 µM; in test [6], 5 µM.
In the case of `C=CC(=O)Nc1cccc(Nc2nc(Nc3cnc(N4CCN(C(=O)OC(C)(C)C)CC4)cc3OC)ncc2C(F)(F)F)c1` [ES-073], the IC50 in test [1] worked out at 1.95 µM; in test [2], 0.214 µM; in test [3], 15 µM; in test [4], 7.08 µM.
